No end group written: not given here.
Tested on: S. epidermidis
Experiment: Peptide bacterial killing assay
Assay type: cell-based, Staphylococcus epidermidis
Settings: S. epidermidis Δcap versus wild-type; approximately 10^5 cells; 0-40 μg/ml peptide; 2 hours at 37° C.; survivors counted by plating
Procedure: S. epidermidis cultures were harvested, washed with PBS buffer, and resuspended in 10 mM sodium phosphate buffer (pH 7.0). Bacterial killing assays were performed using a final concentration of approximately 10^5 S. epidermidis cells in each sample. Antimicrobial peptides were dissolved in the following solutions: human β-defensin 3, 10 mM acetic acid, and LL-37, 10% acetonitrile with 0.1% trifluoroacetic acid. The bacteria were exposed to a range of antimicrobial peptide concentrations (0, 5, 10, 20, 30, and 40 μg/ml). An equal volume of the respective peptide dilution buffer was applied to control samples. Samples were incubated at 37° C. for 2 hours and appropriate dilution series of the samples were plated on TSB agar. Survivor S. epidermidis cells were enumerated after 24 hours of incubation at 37° C. The percentage of killed S. epidermidis was calculated using the formula (1−[CFUpeptide/CFUcontrol])×100.
Resistance to cationic antimicrobial peptides was determined by incubating washed S. epidermidis cells (approximately 10^5) with LL-37 or human β-defensin 3 in various concentrations of antimicrobial peptides for 2 hours at 37° C. Thereafter, S. epidermidis survivor cells were counted by plating. Results are shown as dose-response curves. […] Values of significance were calculated against the wild-type (for Δcap) and Δcap (for capBCAD) strains.

Substance | resistance of the cap mutant strain to antibacterial peptide
LL-37 (LLGDFFRKSKEKIGKEFKRIVQRIKDFLRNLVPRTES; Antibacterial peptide LL-37; UniProt P49913 134-170, looked up) [representative cationic antibacterial peptide from human skin and neutrophil specific granules] | significantly reduced resistance
human β-defensin 3 (GIINTLQKYYCRVRGGRCAVLSCLPKEEQIGKCSTRGRKCCRRKK; ends and bridges not checked; cysteine pairing not given here; UniProt P81534 23-67, looked up) [representative cationic antibacterial peptide from human skin and neutrophil specific granules] | significantly reduced resistance

Reference: US8921071B2, “Targeting poly-gamma-glutamic acid to treat Staphylococcus epidermidis and related infections” (priority 2005, dated 2014)
